Test results: patent publication US8410278B2, “Method for preparing a non-hydratable crystal form” (E I du Pont de Nemours and Company, priority 2008, dated 2013)

Legend:
[1] = type: physicochemical
Description: Remarkably water is now discovered to work very well as a solvent in the heated liquid phase for converting Polymorph B to Polymorph A. This is particularly unexpected, because Polymorph B, which can accommodate significant amounts of water in its crystal lattice, can be anticipated to be favored over anhydrous Polymorph A in an aqueous medium. Nevertheless, water is now found to be particularly suitable in forming the liquid phase for conversion of Polymorph B to Polymorph A. Conversion proceeds to near 100% completion and in high yields within commercially convenient time periods at temperatures not exceeding about 100° C. (i.e. the normal boiling point of water). […] Alternatively if Polymorph A is in high concentration in water, Polymorph A can be isolated by evaporation of the water.

[2] = Water uptake/loss on exposure to variations in atmospheric humidity; type: physicochemical
Description: (§1) A method has now been discovered for the preparation of a non-hydratable polymorph of Compound 1 (Polymorph A) from a hydratable polymorph of Compound 1 (Polymorph B) that typically is initially formed by procedures for preparing Compound 1. […] This surprising stability facilitates a more consistent assay of Compound 1. These characteristics also make Polymorph A of Compound 1 well suited for the production of long-lasting stable solid formulations, enabling specifying a stable active ingredient content.

[3] = Crystal form stability during long-term storage; type: physicochemical
Description: as §1

Compound | Solubility in water [1] | Change of water content on exposure to variations in atmospheric humidity [2] | Conversion to Polymorph B during long-term storage [3]
CNC(=O)c1cc(C#N)cc(C)c1NC(=O)c1cc(Br)nn1-c1ncccc1Cl [Polymorph A, 3-bromo-1-(3-chloro-2-pyridinyl)-N-[4-cyano-2-methyl-6-[(methylamino)carbonyl]phenyl]-1H-pyrazole-5-carboxamide] | little solubility in water | does not gain or lose appreciable amounts of water | does not typically convert to Polymorph B
CNC(=O)c1cc(C#N)cc(C)c1NC(=O)c1cc(Br)nn1-c1ncccc1Cl [Polymorph B, 3-bromo-1-(3-chloro-2-pyridinyl)-N-[4-cyano-2-methyl-6-[(methylamino)carbonyl]phenyl]-1H-pyrazole-5-carboxamide] | – | changes significantly | –
